Reference: the supplement of paper PMC8920030

Columns and labels:
Details in all cases: growth mode: biofilm, 24 h; exposure time: 24 h
tobramycin [1] = compound: T1, NC[C@H]1O[C@H](O[C@H]2[C@H](O)[C@@H](O[C@H]3O[C@H](CO)[C@@H](O)[C@H](N)[C@H]3O)[C@H](N)C[C@@H]2N)[C@H](N)C[C@@H]1O [tobramycin]; assay: minimum concentration of killing, 4-log CFU reduction of biofilm (MCK99.99); higher = more biofilm tolerance
Experimental: (§1)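 Clinical P. aeruginosa isolates were grown as static biofilms for 24 h at 37 °C in LB in half-area 96-well plates, then exposed for 24 h to tobramycin at 1, 4, 16, 64, 256 or […]. Surviving CFU were counted by spotting serial dilutions. MCK is the lowest tested concentration giving the stated log reduction in CFU versus an untreated control; '>1024' means the reduction was not reached at the top dose, and 1 is the lowest dose tested (≤1).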

tobramycin [2] = compound: T1, tobramycin; assay: minimum concentration of killing, 1-log CFU reduction of biofilm (MCK90); higher = more biofilm tolerance
Experimental: as §1

colistin [3] = compound: T2, CCC(C)CCCC(=O)N[C@@H](CCN)C(=O)N[C@H](C(=O)N[C@@H](CCN)C(=O)N[C@H]1CCNC(=O)[C@H]([C@@H](C)O)NC(=O)[C@H](CCN)NC(=O)[C@H](CCN)NC(=O)[C@H](CC(C)C)NC(=O)[C@@H](CC(C)C)NC(=O)[C@H](CCN)NC1=O)[C@@H](C)O [colistin]; assay: as above
Experimental: as §1, with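 “colistin” for “tobramycin”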

colistin [4] = compound: T2, colistin; assay: minimum concentration eradicating biofilm below detection limit (MCK-E); higher = more biofilm tolerance
Experimental: as §1, with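 “colistin” for “tobramycin”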

tobramycin [5] = compound: T1, tobramycin; assay: minimum concentration of killing, 2-log CFU reduction of biofilm (MCK99); higher = more biofilm tolerance
Experimental: as §1

tobramycin [6] = compound: T1, tobramycin; assay: minimum concentration eradicating biofilm below detection limit (MCK-E); higher = more biofilm tolerance
Experimental: as §1

colistin [7] = compound: T2, colistin; assay: minimum concentration of killing, 4-log CFU reduction of biofilm (MCK99.99); higher = more biofilm tolerance
Experimental: as §1, with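 “colistin” for “tobramycin”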

colistin [8] = compound: T2, colistin; assay: minimum concentration of killing, 2-log CFU reduction of biofilm (MCK99); higher = more biofilm tolerance
Experimental: as §1, with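 “colistin” for “tobramycin”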

| Test System | minimum concentration of killing (tobramycin [1]) | minimum concentration of killing (tobramycin [2]) | minimum concentration of killing (colistin [3]) | minimum concentration eradicating biofilm below detection limit (colistin [4]) | minimum concentration of killing (tobramycin [5]) | minimum concentration eradicating biofilm below detection limit (tobramycin [6]) | minimum concentration of killing (colistin [7]) | minimum concentration of killing (colistin [8]) |
| --- | --- | --- | --- | --- | --- | --- | --- | --- |
| Pseudomonas aeruginosa clinical isolate ESP066 | > 1020 µg/mL | 256 µg/mL | 256 µg/mL | 1020 µg/mL | 256 µg/mL | > 1020 µg/mL | 1020 µg/mL | 256 µg/mL |
| Pseudomonas aeruginosa clinical isolate ESP067 | 256 µg/mL | 4 µg/mL | 64 µg/mL | 256 µg/mL | 16 µg/mL | 1020 µg/mL | 256 µg/mL | 256 µg/mL |
| Pseudomonas aeruginosa clinical isolate ESP070 | > 1020 µg/mL | 1020 µg/mL | 64 µg/mL | 1020 µg/mL | 1020 µg/mL | > 1020 µg/mL | 1020 µg/mL | 256 µg/mL |
| Pseudomonas aeruginosa clinical isolate ESP072 | 256 µg/mL | 4 µg/mL | 64 µg/mL | 256 µg/mL | 16 µg/mL | 256 µg/mL | 256 µg/mL | 256 µg/mL |
| Pseudomonas aeruginosa clinical isolate ESP073 | 64 µg/mL | 16 µg/mL | 16 µg/mL | 256 µg/mL | 16 µg/mL | 256 µg/mL | 256 µg/mL | 256 µg/mL |
| Pseudomonas aeruginosa clinical isolate ESP075 | 64 µg/mL | ≤ 1 µg/mL | 256 µg/mL | 256 µg/mL | 4 µg/mL | 256 µg/mL | 256 µg/mL | 256 µg/mL |
| Pseudomonas aeruginosa clinical isolate ESP076 | > 1020 µg/mL | > 1020 µg/mL | 256 µg/mL | 256 µg/mL | > 1020 µg/mL | > 1020 µg/mL | 256 µg/mL | 256 µg/mL |
| Pseudomonas aeruginosa clinical isolate ESP077 | 1020 µg/mL | 1020 µg/mL | 64 µg/mL | 256 µg/mL | 1020 µg/mL | > 1020 µg/mL | 256 µg/mL | 64 µg/mL |
| Pseudomonas aeruginosa clinical isolate ESP081 | 64 µg/mL | 4 µg/mL | 256 µg/mL | 256 µg/mL | 16 µg/mL | 64 µg/mL | 256 µg/mL | 256 µg/mL |
| Pseudomonas aeruginosa clinical isolate ESP083 | > 1020 µg/mL | > 1020 µg/mL | 4 µg/mL | 256 µg/mL | > 1020 µg/mL | > 1020 µg/mL | 256 µg/mL | 64 µg/mL |
| Pseudomonas aeruginosa clinical isolate ESP088 | > 1020 µg/mL | 256 µg/mL | 64 µg/mL | 256 µg/mL | 1020 µg/mL | > 1020 µg/mL | 256 µg/mL | 64 µg/mL |
| Pseudomonas aeruginosa clinical isolate ESP091 | 1020 µg/mL | 64 µg/mL | 256 µg/mL | 256 µg/mL | 64 µg/mL | 1020 µg/mL | 256 µg/mL | 256 µg/mL |
| Pseudomonas aeruginosa clinical isolate ESP093 | > 1020 µg/mL | 4 µg/mL | 16 µg/mL | 256 µg/mL | 1020 µg/mL | > 1020 µg/mL | 256 µg/mL | 64 µg/mL |
| Pseudomonas aeruginosa clinical isolate F1688 | 256 µg/mL | 4 µg/mL | 16 µg/mL | 256 µg/mL | 4 µg/mL | 256 µg/mL | 256 µg/mL | 256 µg/mL |
| Pseudomonas aeruginosa clinical isolate F1706 | 16 µg/mL | 4 µg/mL | 256 µg/mL | 256 µg/mL | 16 µg/mL | 256 µg/mL | 256 µg/mL | 256 µg/mL |
| Pseudomonas aeruginosa clinical isolate F1720 | 1020 µg/mL | 4 µg/mL | ≤ 1 µg/mL | 256 µg/mL | 64 µg/mL | > 1020 µg/mL | 256 µg/mL | 64 µg/mL |
| Pseudomonas aeruginosa clinical isolate F1727 | 1020 µg/mL | 4 µg/mL | 256 µg/mL | 256 µg/mL | 4 µg/mL | 1020 µg/mL | 256 µg/mL | 256 µg/mL |
| Pseudomonas aeruginosa clinical isolate F1757 | > 1020 µg/mL | ≤ 1 µg/mL | 64 µg/mL | 256 µg/mL | 64 µg/mL | > 1020 µg/mL | 64 µg/mL | 64 µg/mL |
